Paper PMC7982320 (Pharmacology Research & Perspectives, 2021)

Tests used:
Type in all cases: in vitro ADME
human BCRP = molecular target: T1, human BCRP (Homo sapiens, UniProt Q9UNQ0); test: Transporter substrate assay, MDCKII‐BCRP monolayer bidirectional transport; details: BCRP ML; for Maximum net ER: maximum seen at 2.5 µM, n = 3
T1 sequence (Q9UNQ0 1-655): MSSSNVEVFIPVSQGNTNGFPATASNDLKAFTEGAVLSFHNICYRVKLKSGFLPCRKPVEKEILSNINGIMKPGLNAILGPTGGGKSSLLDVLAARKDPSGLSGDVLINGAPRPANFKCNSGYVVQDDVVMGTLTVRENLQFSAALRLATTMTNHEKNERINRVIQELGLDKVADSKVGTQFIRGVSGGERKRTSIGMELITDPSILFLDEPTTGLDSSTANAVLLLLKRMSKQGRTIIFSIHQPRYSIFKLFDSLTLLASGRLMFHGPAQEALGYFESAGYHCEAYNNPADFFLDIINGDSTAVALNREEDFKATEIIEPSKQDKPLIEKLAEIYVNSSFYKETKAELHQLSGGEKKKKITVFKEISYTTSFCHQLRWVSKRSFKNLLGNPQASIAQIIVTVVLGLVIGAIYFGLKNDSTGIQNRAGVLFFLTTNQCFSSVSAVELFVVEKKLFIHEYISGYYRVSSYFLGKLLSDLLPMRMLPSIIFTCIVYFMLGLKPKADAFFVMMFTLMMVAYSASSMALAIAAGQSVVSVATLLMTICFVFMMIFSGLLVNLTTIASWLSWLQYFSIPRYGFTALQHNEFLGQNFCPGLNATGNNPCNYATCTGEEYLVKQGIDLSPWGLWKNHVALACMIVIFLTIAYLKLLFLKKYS

human MDR1 = human MDR1 (Homo sapiens, UniProt P08183); test: Transporter substrate assay, MDCKII‐MDR1 monolayer bidirectional transport; details: MDR1 ML; for Maximum net ER: maximum seen at 1 and 5 µM, n = 3
human MATE1 = molecular target: T2, human MATE1 (Homo sapiens, UniProt Q96FL8); test: Uptake transporter substrate assay; details: MATE1 UPT; for Maximum fold accumulation over control: maximum seen at 1 µM and 2 min, n = 3
T2 sequence (Q96FL8 1-570): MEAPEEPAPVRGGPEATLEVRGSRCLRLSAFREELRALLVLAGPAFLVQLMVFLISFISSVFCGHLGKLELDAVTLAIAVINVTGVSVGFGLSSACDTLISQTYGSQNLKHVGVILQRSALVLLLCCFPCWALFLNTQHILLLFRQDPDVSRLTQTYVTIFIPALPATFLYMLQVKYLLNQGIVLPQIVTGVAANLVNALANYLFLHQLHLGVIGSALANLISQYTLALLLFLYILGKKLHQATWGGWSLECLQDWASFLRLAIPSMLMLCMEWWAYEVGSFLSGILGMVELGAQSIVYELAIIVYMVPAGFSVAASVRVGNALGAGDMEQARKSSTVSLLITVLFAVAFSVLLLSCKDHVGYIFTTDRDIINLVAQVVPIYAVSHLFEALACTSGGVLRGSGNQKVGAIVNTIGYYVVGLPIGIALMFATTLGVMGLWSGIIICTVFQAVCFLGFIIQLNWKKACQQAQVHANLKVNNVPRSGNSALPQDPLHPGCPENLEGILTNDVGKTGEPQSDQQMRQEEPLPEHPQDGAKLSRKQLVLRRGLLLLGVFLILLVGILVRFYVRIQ

human MATE2‐K = human MATE2‐K (Homo sapiens, UniProt Q86VL8); test: Uptake transporter substrate assay; details: MATE2‐K UPT; for Maximum fold accumulation over control: maximum seen at 2.5 µM and 20 min, n = 3
human OATP1B3 = molecular target: T3, human OATP1B3 (Homo sapiens, UniProt Q9NPD5); test: Uptake transporter substrate assay; details: OATP1B3 UPT; for Maximum fold accumulation over control: maximum seen at 1 µM and 20 min, n = 3
T3 sequence (Q9NPD5 1-702): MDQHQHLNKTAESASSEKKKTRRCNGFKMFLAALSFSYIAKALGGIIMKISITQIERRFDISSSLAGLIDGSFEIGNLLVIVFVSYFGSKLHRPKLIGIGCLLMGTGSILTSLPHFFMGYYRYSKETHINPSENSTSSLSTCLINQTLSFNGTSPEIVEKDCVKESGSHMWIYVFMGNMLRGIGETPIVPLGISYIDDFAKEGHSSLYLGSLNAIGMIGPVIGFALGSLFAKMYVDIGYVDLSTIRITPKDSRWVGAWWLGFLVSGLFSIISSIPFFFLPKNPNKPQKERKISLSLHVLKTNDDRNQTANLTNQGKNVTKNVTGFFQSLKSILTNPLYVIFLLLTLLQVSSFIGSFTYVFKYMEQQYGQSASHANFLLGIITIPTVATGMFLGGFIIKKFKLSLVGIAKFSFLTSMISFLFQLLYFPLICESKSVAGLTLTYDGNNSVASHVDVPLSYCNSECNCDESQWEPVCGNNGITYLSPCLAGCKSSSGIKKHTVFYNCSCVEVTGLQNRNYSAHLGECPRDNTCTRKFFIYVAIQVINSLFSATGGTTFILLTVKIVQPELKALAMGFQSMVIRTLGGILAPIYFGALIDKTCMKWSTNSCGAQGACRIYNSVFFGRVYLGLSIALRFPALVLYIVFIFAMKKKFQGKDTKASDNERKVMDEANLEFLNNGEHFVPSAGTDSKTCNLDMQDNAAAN

human OCT2 = molecular target: T4, human OCT2 (Homo sapiens, UniProt O15244); test: Uptake transporter substrate assay; details: OCT2 UPT; for Maximum fold accumulation over control: maximum seen at 1 µM and 20 min, n = 3
T4 sequence (O15244 1-555): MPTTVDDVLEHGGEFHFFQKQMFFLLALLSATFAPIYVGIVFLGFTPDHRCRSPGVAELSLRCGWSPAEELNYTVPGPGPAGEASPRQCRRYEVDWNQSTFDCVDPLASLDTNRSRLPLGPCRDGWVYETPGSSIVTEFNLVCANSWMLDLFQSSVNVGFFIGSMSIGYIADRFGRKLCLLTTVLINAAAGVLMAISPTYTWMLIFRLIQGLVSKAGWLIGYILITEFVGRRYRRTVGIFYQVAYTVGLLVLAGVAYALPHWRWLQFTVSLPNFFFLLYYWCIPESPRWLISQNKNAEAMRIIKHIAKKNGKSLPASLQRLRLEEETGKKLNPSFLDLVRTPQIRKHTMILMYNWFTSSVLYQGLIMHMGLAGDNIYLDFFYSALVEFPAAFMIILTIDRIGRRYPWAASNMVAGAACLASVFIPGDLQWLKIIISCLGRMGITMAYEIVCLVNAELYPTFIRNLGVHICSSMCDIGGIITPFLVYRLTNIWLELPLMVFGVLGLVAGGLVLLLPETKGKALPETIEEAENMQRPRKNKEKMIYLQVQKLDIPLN

[1] = listed as 6β‐hydroxy‐21‐desacetyl deflazacort

Chain of human MATE2‐K (Q86VL8 1-566 isoform Q86VL8-3): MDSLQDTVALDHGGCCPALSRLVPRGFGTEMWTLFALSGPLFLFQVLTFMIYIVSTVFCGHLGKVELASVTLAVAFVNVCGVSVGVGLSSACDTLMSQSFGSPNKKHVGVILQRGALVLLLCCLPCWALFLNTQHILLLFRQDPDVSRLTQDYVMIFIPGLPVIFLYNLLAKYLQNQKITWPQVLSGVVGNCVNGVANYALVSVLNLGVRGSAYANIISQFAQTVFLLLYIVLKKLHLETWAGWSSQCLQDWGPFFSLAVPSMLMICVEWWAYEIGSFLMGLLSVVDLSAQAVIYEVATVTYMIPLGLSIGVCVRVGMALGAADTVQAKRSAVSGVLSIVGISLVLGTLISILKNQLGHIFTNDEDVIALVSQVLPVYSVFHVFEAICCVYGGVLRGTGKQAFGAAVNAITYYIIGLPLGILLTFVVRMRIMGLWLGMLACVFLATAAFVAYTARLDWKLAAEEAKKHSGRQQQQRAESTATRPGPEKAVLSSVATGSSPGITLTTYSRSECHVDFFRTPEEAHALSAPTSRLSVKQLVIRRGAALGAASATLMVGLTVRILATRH
Chain of human MDR1 (P08183 whole entry): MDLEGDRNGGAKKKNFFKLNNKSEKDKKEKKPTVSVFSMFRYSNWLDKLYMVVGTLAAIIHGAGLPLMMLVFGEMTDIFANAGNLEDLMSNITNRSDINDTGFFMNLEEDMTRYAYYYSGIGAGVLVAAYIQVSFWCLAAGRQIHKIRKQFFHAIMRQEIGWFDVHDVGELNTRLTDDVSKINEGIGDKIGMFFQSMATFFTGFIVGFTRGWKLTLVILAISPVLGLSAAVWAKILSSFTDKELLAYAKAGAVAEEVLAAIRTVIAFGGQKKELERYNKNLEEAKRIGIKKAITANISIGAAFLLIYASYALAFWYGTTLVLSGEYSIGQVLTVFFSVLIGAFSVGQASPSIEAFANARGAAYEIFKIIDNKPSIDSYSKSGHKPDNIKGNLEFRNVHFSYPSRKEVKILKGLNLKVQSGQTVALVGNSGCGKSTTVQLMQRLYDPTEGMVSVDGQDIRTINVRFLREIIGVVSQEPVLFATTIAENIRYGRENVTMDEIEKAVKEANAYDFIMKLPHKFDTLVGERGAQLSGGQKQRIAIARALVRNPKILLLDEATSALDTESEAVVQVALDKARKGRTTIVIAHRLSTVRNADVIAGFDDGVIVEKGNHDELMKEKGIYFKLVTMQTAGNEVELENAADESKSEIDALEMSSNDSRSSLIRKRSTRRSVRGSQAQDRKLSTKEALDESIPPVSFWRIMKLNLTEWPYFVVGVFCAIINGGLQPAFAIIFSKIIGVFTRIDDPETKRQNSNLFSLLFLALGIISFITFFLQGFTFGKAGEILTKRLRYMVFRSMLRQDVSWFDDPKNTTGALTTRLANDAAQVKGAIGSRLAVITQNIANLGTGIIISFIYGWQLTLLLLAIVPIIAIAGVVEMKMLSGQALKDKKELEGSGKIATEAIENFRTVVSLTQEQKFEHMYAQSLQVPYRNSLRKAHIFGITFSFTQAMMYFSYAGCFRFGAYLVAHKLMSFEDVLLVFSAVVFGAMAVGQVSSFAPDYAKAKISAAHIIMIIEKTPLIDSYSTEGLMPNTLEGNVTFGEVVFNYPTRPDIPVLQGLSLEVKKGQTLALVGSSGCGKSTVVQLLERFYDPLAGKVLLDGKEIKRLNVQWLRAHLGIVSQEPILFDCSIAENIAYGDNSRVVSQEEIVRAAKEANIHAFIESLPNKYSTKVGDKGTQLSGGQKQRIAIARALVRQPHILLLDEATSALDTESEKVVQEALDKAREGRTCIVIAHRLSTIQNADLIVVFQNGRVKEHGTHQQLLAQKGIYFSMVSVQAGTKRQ

Molecule	Maximum net ER (human BCRP)	Maximum net ER (human MDR1)	Maximum fold accumulation over control (human MATE1)	Maximum fold accumulation over control (human MATE2‐K)	Maximum fold accumulation over control (human OATP1B3)	Maximum fold accumulation over control (human OCT2)	Substrate potential (human BCRP)	Substrate potential (human BCRP; [1])	Substrate potential (human MDR1)	Substrate potential (human MDR1; [1])	Substrate potential (human MATE1)	Substrate potential (human MATE1; [1])	Substrate potential (human MATE2‐K)	Substrate potential (human MATE2‐K; [1])	Substrate potential (human OATP1B3)	Substrate potential (human OATP1B3; [1])	Substrate potential (human OCT2)	Substrate potential (human OCT2; [1])
[2’-^14C]-6β-hydroxy-21-desacetyl-deflazacort [^14C‐6β‐OH‐21‐desDFZ]	0.17	0.59	< 2 fold	< 2 fold	< 2 fold	< 2 fold	–	–	–	–	–	–	–	–	–	–	–	–
CC1=N[C@]2(C(=O)CO)[C@@H](C[C@H]3[C@@H]4C[C@@H](O)C5=CC(=O)C=C[C@]5(C)[C@H]4[C@@H](O)C[C@@]32C)O1 [6β‐OH‐21‐desDFZ, 6β‐Hydroxy‐21‐desacetyl deflazacort]	0.17 at 2.5 µM	0.59 at 1 and 5 µM	1.18 at 1 µM and 2 min fold	1.08 at 2.5 µM and 20 min fold	1.47 at 1 µM and 20 min fold	1.32 at 1 µM and 20 min fold	not a substrate	No	not a substrate	No	not a substrate	No	not a substrate	No	not a substrate	No	not a substrate	No
